Test results reported in patent US20220356186A1, “PERK INHIBITING PYRROLOPYRIMIDINE COMPOUNDS” (HiberCell, Inc., priority 2019, published 2022).
Read-outs that look alike come from different tables or passages of the source.

Tests used:
[1] = biological target: T1, EIF2AK3 (PERK) catalytic domain (amino acids 536-1116) (Homo sapiens, UniProt Q9NZJ5); test: PERK in vitro activity assay (isolated), TR-FRET kinase assay; format: biochemical; conditions: isolated PERK enzyme, 1.5 μM ATP; read-out: Biochemical IC50
T1 construct: EIF2AK3 (PERK) catalytic domain (amino acids 536-1116)
T1 sequence (Q9NZJ5 536-1116): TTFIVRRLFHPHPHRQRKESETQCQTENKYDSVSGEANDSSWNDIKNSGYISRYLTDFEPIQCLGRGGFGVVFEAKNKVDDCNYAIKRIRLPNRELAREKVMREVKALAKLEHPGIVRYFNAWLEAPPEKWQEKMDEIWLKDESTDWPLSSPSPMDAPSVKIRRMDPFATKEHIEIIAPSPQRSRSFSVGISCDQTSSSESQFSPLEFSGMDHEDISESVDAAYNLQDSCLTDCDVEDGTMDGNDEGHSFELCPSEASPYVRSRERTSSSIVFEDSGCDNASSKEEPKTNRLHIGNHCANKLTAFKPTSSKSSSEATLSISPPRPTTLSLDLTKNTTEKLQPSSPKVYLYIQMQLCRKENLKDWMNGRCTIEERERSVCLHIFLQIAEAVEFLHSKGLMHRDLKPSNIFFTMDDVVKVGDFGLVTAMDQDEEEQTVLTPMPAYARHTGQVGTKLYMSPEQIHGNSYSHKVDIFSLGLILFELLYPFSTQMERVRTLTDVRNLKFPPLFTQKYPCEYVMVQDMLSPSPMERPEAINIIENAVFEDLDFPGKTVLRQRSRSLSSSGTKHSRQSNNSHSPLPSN
From the text: PERK In Vitro Activity Assay (Isolated):
In vitro Inhibition of PERK Enzyme Activity (isolated) Recombinant human EIF2AK2 (PKR) catalytic domain (amino acids 252-551), EIF2AK3 (PERK) catalytic domain (amino acids 536-1116), GFP-eIF2a substrate, and Terbium-labelled phospho-eIF2a antibody is obtained (Invitrogen, Carlsbad, Calif.).
Express and purify HIS-SUMO-GCN2 catalytic domain (amino acids 584-1019) from E. coli. Perform TR-FRET kinase assays in the absence or presence of inhibitors in a reaction buffer consisting of 50 mM HEPES, pH 7.5, 10 mM MgCb, 1.0 mM EGTA, and 0.01% Brij-35, and 100-200 nM GFP-eIF2a substrate. […] Add test compound, initiate the reaction by addition of enzyme, and incubate at room temperature for 45 minutes. Stop the reaction by addition of EDTA to a final concentration of 10 mM, add Terbium-labelled phospho-eIF2a antibody at a final concentration of 2 nM, and incubate for 90 minutes. Monitor the resulting fluorescence in an EnVison® Multilabel reader (PerkinElmer, Waltham, Mass.). Determine TR-FRET ratios and the resulting IC50 values using a 4-parameter nonlinear logistic equation as shown: Y=(A+((B−A)/(1+((C/x)[…])))) where, Y=% specific inhibition, A=Bottom of the curve, B=Top of the curve, C=absolute IC50 (concentration causing 50% inhibition), and D=hill slope.

[2] = tested on: GFP-eIF2α in HEK293 cells; test: PERK cellular assay, TR-FRET in HEK293-EGFP-eIF2a cells after tunicamycin-induced ER stress; format: cell-based; conditions: HEK293-EGFP-eIF2a cells, tunicamycin 2 hours, read-out: Cellular eIF2α IC50
Procedure: Stable cell lines were created in HEK293 cells using lentiviral particles harboring an expression vector for GFP-eIF2α. Cells were selected using puromycin and enriched using fluorescence activated cell sorting against GFP. HEK293-EGFP-eIF2a cells were plated at 5000 cells/well in 384-well assay plates and incubated overnight at 37° C., 5% CO2. Inhibitor compounds were added to the wells by Echo acoustic dispensing and incubated for 30 minutes at 37° C., 5% CO2 prior to induction of ER stress by addition of tunicamycin to […] for 2 hours. Cells were lysed and TR-FRET was measured in an EnVision plate reader (PerkinElmer). FRET ratio data was normalized to signal from lysates treated with DMSO vehicle control and plotted as percent inhibition against 10-point; 3-fold dilution series of inhibitors. IC50 values were calculated using 4-parameter logistical fitting in XLFit.

Work on `Cc1nc(N)c2c(-c3ccc(NC(=O)C(O)c4cc(F)cc(C(F)(F)F)c4)c(F)c3F)cn(C)c2n1` (single isomer, unassigned) [Example 115, N-(4-(4-amino-2,7-dimethyl-7H-pyrrolo[2,3-d]pyrimidin-5-yl)-2,3-difluorophenyl)-2-(3-fluoro-5-(trifluoromethyl)phenyl)-2-hydroxyacetamide] yielded an IC50 [1] of 1 to 25 nM and an IC50 [2] of 1 to 25 nM.

`Cc1cc(NC(=O)C(O)c2ccccc2Cl)ccc1-c1cn(C)c2ncnc(N)c12` (centres unmarked) [Example 33, N-(4-(4-amino-7-methyl-7H-pyrrolo[2,3-d]pyrimidin-5-yl)-3-methylphenyl)-2-(2-chlorophenyl)-2-hydroxyacetamide] gave an IC50 [1] of 1 to 25 nM and an IC50 ([2]; Homo sapiens, HEK293, 2 h) of 51 to 100 nM.

In the case of `Cc1cccc(CC(=O)Nc2ccc(-c3cn(C)c4nc(C)nc(N)c34)c(C)c2)n1` [Example 135, N-(4-(4-amino-2,7-dimethyl-7H-pyrrolo[2,3-d]pyrimidin-5-yl)-3-methylphenyl)-2-(6-methylpyridin-2-yl)acetamide], the IC50 [1] is reported as 26 to 50 nM and the IC50 ([2]; Homo sapiens, HEK293, 2 h) is reported as 251 to 500 nM.

With `Cn1cc(-c2ccc(NC(=O)C(O)c3cccc(F)c3)cc2OC(F)(F)F)c2c(N)ncnc21` (centres unmarked) [Example 18, N-(4-(4-amino-7-methyl-7H-pyrrolo[2,3-d]pyrimidin-5-yl)-3-(trifluoromethoxy)phenyl)-2-(3-fluorophenyl)-2-hydroxyacetamide] the IC50 [1] was 1 to 25 nM and the IC50 ([2]; Homo sapiens, HEK293, 2 h) was 101 to 250 nM.

`Cc1nc(N)c2c(-c3ccc(NC(=O)C(O)c4cccc(C(F)(F)F)n4)cc3C)cn(C)c2n1` (centres unmarked) [Example 61, N-(4-(4-amino-2,7-dimethyl-7H-pyrrolo[2,3-d]pyrimidin-5-yl)-3-methylphenyl)-2-hydroxy-2-(6-(trifluoromethyl)pyridin-2-yl)acetamide] was tested, and the IC50 [1] was 101 to 250 nM and the IC50 [2] was 501 to 1000 nM.

Compound `Cc1nc(N)c2c(-c3cc(F)c(NC(=O)C(O)c4cccc(F)c4)cc3C)cn(C)c2n1` (single isomer, unassigned) [Example 121, N-(4-(4-amino-2,7-dimethyl-7H-pyrrolo[2,3-d]pyrimidin-5-yl)-2-fluoro-5-methylphenyl)-2-(3-fluorophenyl)-2-hydroxyacetamide] has an IC50 [1] of 1 to 25 nM and an IC50 [2] of 26 to 50 nM.

Compound `Cc1nc(N)c2c(-c3ccc(NC(=O)C(O)c4ccccc4C)cc3Cl)cn(C)c2n1` (centres unmarked) [Example 94, N-(4-(4-amino-2,7-dimethyl-7H-pyrrolo[2,3-d]pyrimidin-5-yl)-3-chlorophenyl)-2-hydroxy-2-(o-tolyl)acetamide] has an IC50 [1] of 1 to 25 nM and an IC50 [2] of 51 to 100 nM.

`Cc1nc(N)c2c(-c3ccc(NC(=O)C(O)c4ccccc4C)cc3C)cn(C)c2n1` (centres unmarked) [Example 40, N-(4-(4-amino-2,7-dimethyl-7H-pyrrolo[2,3-d]pyrimidin-5-yl)-3-methylphenyl)-2-hydroxy-2-(o-tolyl)acetamide] gave an IC50 [1] of 26 to 50 nM and an IC50 ([2]; Homo sapiens, HEK293, 2 h) of 101 to 250 nM.

With `Cc1nc(N)c2c(-c3ccc(NC(=O)C(O)c4cccc5cnn(C)c45)cc3C)cn(C)c2n1` (single isomer, unassigned) [Example 64, N-(4-(4-amino-2,7-dimethyl-7H-pyrrolo[2,3-d]pyrimidin-5-yl)-3-methylphenyl)-2-hydroxy-2-(1-methyl-1H-indazol-7-yl)acetamide] the IC50 [1] was 251 to 500 nM and the IC50 ([2]; Homo sapiens, HEK293, 2 h) was 2000 to 3000 nM.

With `Cc1cccc(C(O)C(=O)Nc2ccc(-c3cn(C)c4nc(C)nc(N)c34)c(Cl)c2)c1` (centres unmarked) [Example 95, N-(4-(4-amino-2,7-dimethyl-7H-pyrrolo[2,3-d]pyrimidin-5-yl)-3-chlorophenyl)-2-hydroxy-2-(m-tolyl)acetamide] the IC50 [1] was 51 to 100 nM and the IC50 [2] was 251 to 500 nM.

Compound `Cc1nc(N)c2c(-c3ccc(NC(=O)C(O)c4cccc(C(F)(F)F)c4)cc3C)cn(C)c2n1` (centres unmarked) [Example 49, N-(4-(4-amino-2,7-dimethyl-7H-pyrrolo[2,3-d]pyrimidin-5-yl)-3-methylphenyl)-2-hydroxy-2-(3-(trifluoromethyl)phenyl)acetamide] has an IC50 [1] of 1 to 25 nM and an IC50 [2] of 26 to 50 nM.

With `CCc1ccccc1CC(=O)Nc1ccc(-c2cn(C)c3ncnc(N)c23)c(C)c1` [Example 145, N-(4-(4-amino-7-methyl-7H-pyrrolo[2,3-d]pyrimidin-5-yl)-3-methylphenyl)-2-(2-ethylphenyl)acetamide] the IC50 [1] was 1 to 25 nM and the IC50 ([2]; Homo sapiens, HEK293, 2 h) was 26 to 50 nM.

Compound `Cc1nc(N)c2c(-c3ccc(NC(=O)C(O)c4cccc(F)c4)c(F)c3C)cn(C)c2n1` (centres unmarked) [Example 13, N-(4-(4-amino-2,7-dimethyl-7H-pyrrolo[2,3-d]pyrimidin-5-yl)-2-fluoro-3-methylphenyl)-2-(3-fluorophenyl)-2-hydroxyacetamide] has an IC50 [1] of 51 to 100 nM and an IC50 [2] of 1000 to 2000 nM.

Work on `COc1cc(NC(=O)C(O)c2cccc(F)c2)ccc1-c1cn(C)c2nc(C)nc(N)c12` (single isomer, unassigned) [Example 106, N-(4-(4-amino-2,7-dimethyl-7H-pyrrolo[2,3-d]pyrimidin-5-yl)-3-methoxyphenyl)-2-(3-fluorophenyl)-2-hydroxyacetamide] yielded an IC50 [1] of 101 to 250 nM and an IC50 [2] of 1000 to 2000 nM.

In the case of `Cc1nc(N)c2c(-c3ccc(NC(=O)C(O)c4cccc5c4OCC5)cc3C)cn(C)c2n1` (centres unmarked) [Example 63, N-(4-(4-amino-2,7-dimethyl-7H-pyrrolo[2,3-d]pyrimidin-5-yl)-3-methylphenyl)-2-(2,3-dihydrobenzofuran-7-yl)-2-hydroxyacetamide], the IC50 [1] is reported as 101 to 250 nM and the IC50 ([2]; Homo sapiens, HEK293, 2 h) is reported as 2000 to 3000 nM.

`COc1ccccc1CC(=O)Nc1ccc(-c2cn(C)c3ncnc(N)c23)c(C)c1` [Example 138, N-(4-(4-amino-7-methyl-7H-pyrrolo[2,3-d]pyrimidin-5-yl)-3-methylphenyl)-2-(2-methoxyphenyl)acetamide] was tested, and the IC50 [1] was 1 to 25 nM and the IC50 ([2]; Homo sapiens, HEK293, 2 h) was 101 to 250 nM.

With `Cc1c(-c2cn(C)c3ncnc(N)c23)ccc(NC(=O)C(O)c2cccc(F)c2)c1F` (centres unmarked) [Example 117, N-(4-(4-amino-7-methyl-7H-pyrrolo[2,3-d]pyrimidin-5-yl)-2-fluoro-3-methylphenyl)-2-(3-fluorophenyl)-2-hydroxyacetamide] the IC50 [1] was 1 to 25 nM and the IC50 [2] was 1 to 25 nM.

Work on `Cc1nc(N)c2c(-c3ccc(NC(=O)C(O)c4ccccc4C(F)(F)F)cc3C)cn(C)c2n1` (centres unmarked) [Example 46, N-(4-(4-amino-2,7-dimethyl-7H-pyrrolo[2,3-d]pyrimidin-5-yl)-3-methylphenyl)-2-hydroxy-2-(2-(trifluoromethyl)phenyl)acetamide] yielded an IC50 [1] of 251 to 500 nM and an IC50 ([2]; Homo sapiens, HEK293, 2 h) of 2000 to 3000 nM.

`Cc1nc(N)c2c(-c3c(C)cc(NC(=O)C(O)c4cccc(F)c4)cc3C)cn(C)c2n1` (centres unmarked) [Example 126, N-(4-(4-amino-2,7-dimethyl-7H-pyrrolo[2,3-d]pyrimidin-5-yl)-3,5-dimethylphenyl)-2-(3-fluorophenyl)-2-hydroxyacetamide] gave an IC50 [1] of 1 to 25 nM and an IC50 ([2]; Homo sapiens, HEK293, 2 h) of 51 to 100 nM.

Compound `Cc1cccc(CC(=O)Nc2ccc(-c3cn(C)c4ncnc(N)c34)c(C)c2)n1` [Example 136, N-(4-(4-amino-7-methyl-7H-pyrrolo[2,3-d]pyrimidin-5-yl)-3-methylphenyl)-2-(6-methylpyridin-2-yl)acetamide] has an IC50 [1] of 1 to 25 nM and an IC50 ([2]; Homo sapiens, HEK293, 2 h) of 1 to 25 nM.

`COc1cc(NC(=O)C(O)c2cccc(F)c2)ccc1-c1cn(C)c2ncnc(N)c12` (centres unmarked) [Example 104, N-(4-(4-amino-7-methyl-7H-pyrrolo[2,3-d]pyrimidin-5-yl)-3-methoxyphenyl)-2-(3-fluorophenyl)-2-hydroxyacetamide] gave an IC50 [1] of 26 to 50 nM and an IC50 [2] of 101 to 250 nM.

`CCc1nc(N)c2c(-c3ccc(NC(=O)C(O)c4cccc(F)c4)cc3C)cn(C)c2n1` (centres unmarked) [Example 67, N-(4-(4-amino-2-ethyl-7-methyl-7H-pyrrolo[2,3-d]pyrimidin-5-yl)-3-methylphenyl)-2-(3-fluorophenyl)-2-hydroxyacetamide] showed an IC50 [1] of 101 to 250 nM and an IC50 ([2]; Homo sapiens, HEK293, 2 h) of 1000 to 2000 nM.
